According to patent publication US10538535B2, “Antitumoral compounds” (priority 2017, dated 2020):
Like-named read-outs stand apart in the source and are kept apart here.

Experiments:
H526 tumors = assay: In vivo xenograft, human lung (SCLC) H526

Method for A2780 tumors: (§1) Female athymic nu/nu mice (Harlan Laboratories Models, S. L. Barcelona, Spain or Envigo, Spain) were utilized for all experiments. Animal were housed in individually ventilated cages Sealsafe® Plus, Techniplast S.P.A.), up to ten per cage on a 12-hour light-dark cycle at 21-23° C. and 40-60% humidity. […] Animals were acclimated for at least 5 days prior to tumor implantation with a tumor cell suspension.
Culture cells were passaged every 3 to 5 days upon reaching confluence. Each animal was subcutaneously implanted (on the right flank using 26 G needle and a 1 cc syringe) at 4-6 weeks of age with 10×10^6 A2780 cells suspended in 0.05 mL of a solution consisting of 50% Matrigel® (Corning Incorporated Life Sciences) and 50% medium without serum or antibiotics.
(§2) Treatment tolerability was assessed by monitoring body weight evolution, clinical signs of systemic toxicity, as well as evidences of local damage in the injection site.
In xenograft studies with other cell lines: • Tumor volume was calculated using the equation (a·b^2)/2, where a: length (longest diameter) and b: width (shortest diameter) were measured in mm by using digital caliper (Fowler Sylvac, S235PAT).
(§3) Treatments producing >20% lethality and/or 20% net body weight loss were considered toxic.
Method for HGC27 tumors: as §1
HGC27 cells were maintained in vitro at 37° C. with 5% CO2 in Iscove's Modified Dulbecco's Medium (Sigma Aldrich, Co). Culture cells were passage every 3 to 5 days on reaching confluence. Each animal was subcutaneously implanted (on the right flank using 26 G needle and a 1 cc syringe) at 4-6 weeks of age with 5×10^6 HGC-27 cells suspended in 0.05 mL of a solution consisting of 50% Matrigel® (Corning Incorporated Life Sciences), 50% medium without serum or antibiotics.
as §2, §3

COc1c(C)cc2c(c1O)[C@@H]1[C@@H]3[C@@H]4SC[C@]5(N[C@@H](C)Cc6c5[nH]c5ccccc65)C(=O)OC[C@@H](c5c6c(c(C)c(OC(C)=O)c54)OCO6)N3[C@@H](O)[C@H](C2)N1C [D]
Median Tumor Volume (H526 tumors; Table 32, Day 42.0, iv Days 0, 7, 14, 12-R 0.05 mg/kg, Compound D 0.5 mg/kg): 4.0 mm^3 | Median Tumor Volume (H526 tumors; Table 32, Day 49.0, iv Days 0, 7, 14, 12-R 0.05 mg/kg, Compound D 0.5 mg/kg): 4.0 mm^3 | Median Tumor Volume (H526 tumors; Table 56, Day 0, iv weekly, 47-R 0.1 mg/Kg, Compound D 0.5 mg/Kg): 216.1 mm^3 | Median Tumor Volume (H526 tumors; Table 56, Day 2, iv weekly, 47-R 0.1 mg/Kg, Compound D 0.5 mg/Kg): 240.9 mm^3 | Median Tumor Volume (H526 tumors; Table 56, Day 4, iv weekly, 47-R 0.1 mg/Kg, Compound D 0.5 mg/Kg): 99.3 mm^3 | Median Tumor Volume (H526 tumors; Table 56, Day 7, iv weekly, 47-R 0.1 mg/Kg, Compound D 0.5 mg/Kg): 56.7 mm^3 | Median Tumor Volume (H526 tumors; Table 56, Day 9, iv weekly, 47-R 0.1 mg/Kg, Compound D 0.5 mg/Kg): 62.5 mm^3 | Median Tumor Volume (H526 tumors; Table 56, Day 11, iv weekly, 47-R 0.1 mg/Kg, Compound D 0.5 mg/Kg): 62.5 mm^3 | Median Tumor Volume (H526 tumors; Table 56, Day 14, iv weekly, 47-R 0.1 mg/Kg, Compound D 0.5 mg/Kg): 32.0 mm^3 | Median Tumor Volume (H526 tumors; Table 56, Day 16, iv weekly, 47-R 0.1 mg/Kg, Compound D 0.5 mg/Kg): 4.0 mm^3 | Median Tumor Volume (H526 tumors; Table 56, Day 21, iv weekly, 47-R 0.1 mg/Kg, Compound D 0.5 mg/Kg): 4.0 mm^3 | Median Tumor Volume (H526 tumors; Table 56, Day 28, iv weekly, 47-R 0.1 mg/Kg, Compound D 0.5 mg/Kg): 4.0 mm^3 | Median Tumor Volume (H526 tumors; Table 56, Day 35, iv weekly, 47-R 0.1 mg/Kg, Compound D 0.5 mg/Kg): 4.0 mm^3 | Median Tumor Volume (H526 tumors; Table 56, Day 42, iv weekly, 47-R 0.1 mg/Kg, Compound D 0.5 mg/Kg): 4.0 mm^3 | Median Tumor Volume (H526 tumors; Table 56, Day 49, iv weekly, 47-R 0.1 mg/Kg, Compound D 0.5 mg/Kg): 4.0 mm^3 | Median Tumor Volume (H526 tumors; Table 56, Day 56, iv weekly, 47-R 0.1 mg/Kg, Compound D 0.5 mg/Kg): 4.0 mm^3 | Median Tumor Volume (H526 tumors; Table 56, Day 63, iv weekly, 47-R 0.1 mg/Kg, Compound D 0.5 mg/Kg): 4.0 mm^3 | Median Tumor Volume (H526 tumors; Table 56, Day 70, iv weekly, 47-R 0.1 mg/Kg, Compound D 0.5 mg/Kg): 4.0 mm^3 | Median Tumor Volume (H526 tumors; Table 56, Day 77, iv weekly, 47-R 0.1 mg/Kg, Compound D 0.5 mg/Kg): 4.0 mm^3 | Median Tumor Volume (H526 tumors; Table 56, Day 84, iv weekly, 47-R 0.1 mg/Kg, Compound D 0.5 mg/Kg): 4.0 mm^3 | Median Tumor Volume (H526 tumors; Table 56, Day 91, iv weekly, 47-R 0.1 mg/Kg, Compound D 0.5 mg/Kg): 4.0 mm^3 | Median Tumor Volume (H526 tumors; Table 56, Day 98, iv weekly, 47-R 0.1 mg/Kg, Compound D 0.5 mg/Kg): 4.0 mm^3 | Median Tumor Volume (H526 tumors; Table 56, Day 105, iv weekly, 47-R 0.1 mg/Kg, Compound D 0.5 mg/Kg): 4.0 mm^3 | Median Tumor Volume (H526 tumors; Table 56, Day 112, iv weekly, 47-R 0.1 mg/Kg, Compound D 0.5 mg/Kg): 4.0 mm^3 | Median Tumor Volume (H526 tumors; Table 56, Day 119, iv weekly, 47-R 0.1 mg/Kg, Compound D 0.5 mg/Kg): 4.0 mm^3 | Median Tumor Volume (H526 tumors; Table 56, Day 126, iv weekly, 47-R 0.1 mg/Kg, Compound D 0.5 mg/Kg): 4.0 mm^3 | Median Tumor Volume (H526 tumors; Table 56, Day 133, iv weekly, 47-R 0.1 mg/Kg, Compound D 0.5 mg/Kg): 4.0 mm^3 | Median Tumor Volume (H526 tumors; Table 56, Day 140, iv weekly, 47-R 0.1 mg/Kg, Compound D 0.5 mg/Kg): 4.0 mm^3 | Median Tumor Volume (H526 tumors; Table 56, Day 147, iv weekly, 47-R 0.1 mg/Kg, Compound D 0.5 mg/Kg): 4.0 mm^3 | Median Tumor Volume (H526 tumors; Table 56, Day 165, iv weekly, 47-R 0.1 mg/Kg, Compound D 0.5 mg/Kg): 4.0 mm^3 | Median Tumor Volume (H526 tumors; Table 56, Day 175, iv weekly, 47-R 0.1 mg/Kg, Compound D 0.5 mg/Kg): 4.0 mm^3 | Median Tumor Volume (H526 tumors; Table 56, Day 191, iv weekly, 47-R 0.1 mg/Kg, Compound D 0.5 mg/Kg): 4.0 mm^3 | Median Tumor Volume (H526 tumors; Table 56, Day 205, iv weekly, 47-R 0.1 mg/Kg, Compound D 0.5 mg/Kg): 4.0 mm^3 | Median Tumor Volume (HGC27 tumors; Table 28, Day 0, iv Days 0, 7, 14): 157.4 mm^3 | Median Tumor Volume (HGC27 tumors; Table 28, Day 2, iv Days 0, 7, 14): 327.6 mm^3 | Median Tumor Volume (HGC27 tumors; Table 28, Day 5, iv Days 0, 7, 14): 439.6 mm^3 | Median Tumor Volume (HGC27 tumors; Table 28, Day 7, iv Days 0, 7, 14): 418.7 mm^3 | Median Tumor Volume (HGC27 tumors; Table 28, Day 9, iv Days 0, 7, 14): 567.9 mm^3 | Median Tumor Volume (HGC27 tumors; Table 28, Day 12, iv Days 0, 7, 14): 537.0 mm^3 | Median Tumor Volume (HGC27 tumors; Table 28, Day 14, iv Days 0, 7, 14): 654.6 mm^3 | Median Tumor Volume (HGC27 tumors; Table 28, Day 16, iv Days 0, 7, 14): 672.4 mm^3 | Median Tumor Volume (HGC27 tumors; Table 28, Day 19, iv Days 0, 7, 14): 843.0 mm^3 | Median Tumor Volume (HGC27 tumors; Table 28, Day 21, iv Days 0, 7, 14): 842.7 mm^3 | Median Tumor Volume (HGC27 tumors; Table 28, Day 23, iv Days 0, 7, 14): 963.7 mm^3 | Median Tumor Volume (HGC27 tumors; Table 28, Day 26, iv Days 0, 7, 14): 1203.3 mm^3 | Median Tumor Volume (HGC27 tumors; Table 28, Day 28, iv Days 0, 7, 14): 1589.7 mm^3 | Median Tumor Volume (HGC27 tumors; Table 28, Day 30, iv Days 0, 7, 14): 1777.6 mm^3 | Median Tumor Volume (HGC27 tumors; Table 28, Day 33, iv Days 0, 7, 14): 2146.2 mm^3 | Median Tumor Volume (HGC27 tumors; iv, 0.5 mg/kg, 0 h): 194.0 mm^3 | Median Tumor Volume (HGC27 tumors; iv, 0.5 mg/kg, 48 h): 324.2 mm^3 | Median Tumor Volume (HGC27 tumors; iv, 0.5 mg/kg, 120 h): 561.6 mm^3 | Median Tumor Volume (HGC27 tumors; iv, 0.5 mg/kg, 168 h): 504.2 mm^3 | Median Tumor Volume (HGC27 tumors; iv, 0.5 mg/kg, 336 h): 1056.8 mm^3 | Median Tumor Volume (HGC27 tumors; iv, 0.5 mg/kg, 384 h): 1440.2 mm^3 | Median Tumor Volume (HGC27 tumors; iv, 0.5 mg/kg, 456 h): 1717.9 mm^3 | Median Tumor Volume (HGC27 tumors; iv, 0.5 mg/kg, 504 h): 2043.4 mm^3 | Median Tumor Volume (A2780 tumors; Table 26, Day 0, iv Days 0, 7, 14): 190.1 mm^3 | Median Tumor Volume (A2780 tumors; Table 26, Day 3, iv Days 0, 7, 14): 319.6 mm^3 | Median Tumor Volume (A2780 tumors; Table 26, Day 5, iv Days 0, 7, 14): 514.4 mm^3 | Median Tumor Volume (A2780 tumors; Table 26, Day 7, iv Days 0, 7, 14): 897.4 mm^3 | Median Tumor Volume (A2780 tumors; Table 26, Day 10, iv Days 0, 7, 14): 1239.8 mm^3 | Median Tumor Volume (A2780 tumors; Table 26, Day 12, iv Days 0, 7, 14): 1656.2 mm^3 | Median Tumor Volume (A2780 tumors; Table 26, Day 14, iv Days 0, 7, 14): 1951.7 mm^3 | Median Tumor Volume (A2780 tumors; Table 26, Day 17, iv Days 0, 7, 14): 2121.7 mm^3 | Median Tumor Volume (A2780 tumors; Table 26, Day 19, iv Days 0, 7, 14): 2068.6 mm^3 | Median Tumor Volume (A2780 tumors; iv, 0.5 mg/kg, 0 h): 168.8 mm^3 | Median Tumor Volume (A2780 tumors; iv, 0.5 mg/kg, 48 h): 225.7 mm^3 | Median Tumor Volume (A2780 tumors; iv, 0.5 mg/kg, 120 h): 256.6 mm^3 | Median Tumor Volume (A2780 tumors; iv, 0.5 mg/kg, 168 h): 473.8 mm^3 | Median Tumor Volume (A2780 tumors; iv, 0.5 mg/kg, 336 h): 1129.3 mm^3 | Median Tumor Volume (A2780 tumors; iv, 0.5 mg/kg, 384 h): 1198.6 mm^3 | Median Tumor Volume (A2780 tumors; iv, 0.5 mg/kg, 456 h): 1649.6 mm^3 | Median Tumor Volume (A2780 tumors; iv, 0.5 mg/kg, 504 h): 2025.0 mm^3
